Test results published in ChEMBL document CHEMBL1201862, “PubChem BioAssay data set” (2004).
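Protocol summary: plate cells (96-well), add compound at 5 concentrations, incubate 48 h, interpolate endpoints linearly. GI50: concentration for 50% inhibition of growth.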 Activity calls are given as the source filed them. Cut-off read from the data, not from the text of the source: active = GI50 up to about 1.1 µM and inactive = higher.

Columns and labels:
Experiment in all cases: growth of human tumour cells (NCI), 48 h
SNB-75 = system: SNB-75
UACC-62 = system: UACC-62
IGROV-1 = system: IGROV-1
COLO 205 = system: COLO 205
OVCAR-3 = system: OVCAR-3
HCT-116 = system: HCT-116
SK-OV-3 = system: SK-OV-3
EKVX = system: EKVX
SF-295 = system: SF-295
TK-10 = system: TK-10
DMS-114 = system: DMS-114
NCI-H460 = system: NCI-H460
NCI-H522 = system: NCI-H522
RPMI-8226 = system: RPMI-8226
HT-29 = system: HT-29
A549 = system: A549
ACHN = system: ACHN

Row | Structure (SMILES) | GI50 (SNB-75) | GI50 (UACC-62) | GI50 (IGROV-1) | GI50 (COLO 205) | GI50 (OVCAR-3) | GI50 (HCT-116) | GI50 (SK-OV-3) | GI50 (EKVX) | GI50 (SF-295) | GI50 (TK-10) | GI50 (DMS-114) | GI50 (NCI-H460) | GI50 (NCI-H522) | GI50 (RPMI-8226) | GI50 (HT-29) | GI50 (A549) | GI50 (ACHN)
1 | NS(=O)(=O)c1ccc(NC(=O)COC(=O)c2cccc3c(=O)c4ccccc4[nH]c23)cc1 | 14.4 µM (inactive) | 14.6 µM (inactive) | 21.5 µM (inactive) | > 88.3 µM (inactive) | 20.5 µM (inactive) | 17.7 µM (inactive) | 18.9 µM (inactive) | 38.2 µM (inactive) | 23.9 µM (inactive) | 24.7 µM (inactive) | 18.9 µM (inactive) | 33.8 µM (inactive) | 12.3 µM (inactive) | > 100 µM (inactive) | > 100 µM (inactive) | 46.9 µM (inactive) | 26.5 µM (inactive)
2 | C[P+]1(Cc2ccccc2)CCCC1 | > 100 µM (inactive) | > 100 µM (inactive) | > 100 µM (inactive) | > 100 µM (inactive) | > 100 µM (inactive) | > 100 µM (inactive) | > 100 µM (inactive) | > 100 µM (inactive) | > 100 µM (inactive) | > 100 µM (inactive) | > 100 µM (inactive) | > 100 µM (inactive) | > 100 µM (inactive) | > 100 µM (inactive) | > 100 µM (inactive) | > 100 µM (inactive) | > 100 µM (inactive)
3 | Nc1nc(-c2ccccc2)cc(-c2cc(Cl)ccc2O)n1 | 28.7 µM (inactive) | > 100 µM (inactive) | 49.3 µM (inactive) | > 100 µM (inactive) | 35.7 µM (inactive) | 39.7 µM (inactive) | 34.2 µM (inactive) | 46.9 µM (inactive) | 83.6 µM (inactive) | 54.2 µM (inactive) | 55.6 µM (inactive) | 43.9 µM (inactive) | 25.9 µM (inactive) | > 100 µM (inactive) | > 100 µM (inactive) | 42.7 µM (inactive) | 25.6 µM (inactive)
4 | COc1cc(OC)cc(C(=O)Cc2c(C(=O)c3ccccc3)c3ccccc3n2C(=O)c2ccccc2)c1 | 7.46 µM (inactive) | 35.4 µM (inactive) | 31.3 µM (inactive) | 28.6 µM (inactive) | 21.3 µM (inactive) | 23.2 µM (inactive) | 22.8 µM (inactive) | 55.2 µM (inactive) | 19.5 µM (inactive) | 38.5 µM (inactive) | 15.5 µM (inactive) | 15.5 µM (inactive) | 6 µM (inactive) | 9.29 µM (inactive) | 22.9 µM (inactive) | 25.3 µM (inactive) | 33 µM (inactive)
5 | O=C1C2=C(c3ccccc31)C(c1cccc(Cl)c1)NC(S)=N2 (configuration not stated) | 31.9 µM (inactive) | > 100 µM (inactive) | > 100 µM (inactive) | > 100 µM (inactive) | > 100 µM (inactive) | > 100 µM (inactive) | > 100 µM (inactive) | > 100 µM (inactive) | > 100 µM (inactive) | > 100 µM (inactive) | > 100 µM (inactive) | > 100 µM (inactive) | > 100 µM (inactive) | 88.5 µM (inactive) | > 100 µM (inactive) | > 100 µM (inactive) | 68.1 µM (inactive)
6 | O=C1C=CC(=O)N1Nc1ccc([N+](=O)[O-])cc1[N+](=O)[O-] | > 100 µM (inactive) | > 100 µM (inactive) | > 100 µM (inactive) | > 42.8 µM (inactive) | 98.4 µM (inactive) | > 100 µM (inactive) | > 100 µM (inactive) | > 100 µM (inactive) | > 100 µM (inactive) | > 100 µM (inactive) | > 100 µM (inactive) | > 100 µM (inactive) | > 42.7 µM (inactive) | > 44.5 µM (inactive) | > 71.4 µM (inactive) | > 100 µM (inactive) | > 100 µM (inactive)
7 | CC(C)CN(CC(C)C)C(=O)C1CCCC[C@@H]1C(=O)O (some centres not stated) | > 100 µM (inactive) | > 100 µM (inactive) | > 100 µM (inactive) | > 100 µM (inactive) | > 100 µM (inactive) | > 100 µM (inactive) | > 100 µM (inactive) | > 100 µM (inactive) | > 100 µM (inactive) | > 100 µM (inactive) | > 100 µM (inactive) | > 100 µM (inactive) | > 100 µM (inactive) | > 100 µM (inactive) | > 100 µM (inactive) | > 100 µM (inactive) | > 100 µM (inactive)
8 | CC1=C[C@H]2C[C@@]3(C)O[C@@H]([C@]4(C)CC[C@H]([C@@H](C)C(=O)O)OO4)CC3C(C)(C)[C@H]2CC1 (some centres not stated) | 1.08 µM (active) |  |  | 1.44 µM (inactive) | 1.81 µM (inactive) | 2.16 µM (inactive) |  | 1.87 µM (inactive) | 2.01 µM (inactive) | 2.79 µM (inactive) | 1.56 µM (inactive) | 1.13 µM (inactive) | 0.331 µM (active) |  | 0.479 µM (active) | 1.88 µM (inactive) | 1.57 µM (inactive)
